Laboratory results taken from PubChem BioAssay (NCI).
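Each compound was tested at five concentrations against cells in 96-well plates for 48 hours. GI50 = concentration required for 50% inhibition of growth. TGI denotes the concentration required for complete inhibition of growth.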

Tests used:
Assay in all cases: growth of human tumour cells (NCI), 48 h
[1] = test system: 786-0 renal
[2] = test system: A498 renal
[3] = test system: A549 NSCLC
[4] = test system: ACHN renal
[5] = test system: BT-549 breast
[6] = test system: CAKI-1 renal
[7] = test system: CCRF-CEM leukemia
[8] = test system: COLO 205 colon
[9] = test system: DU-145 prostate
[10] = test system: HCC-2998 colon
[11] = test system: HCT-116 colon
[12] = test system: HCT-15 colon
[13] = test system: HL-60(TB) leukemia
[14] = test system: HOP-62 NSCLC
[15] = test system: HOP-92 NSCLC
[16] = test system: HS 578T breast
[17] = test system: HT29 colon
[18] = test system: IGROV1 ovarian
[19] = test system: K-562 leukemia
[20] = test system: KM12 colon
[21] = test system: LOX IMVI melanoma
[22] = test system: M14 melanoma
[23] = test system: MALME-3M melanoma
[24] = test system: MCF7 breast
[25] = test system: MDA-MB-231 breast
[26] = test system: MDA-MB-435
[27] = test system: MOLT-4 leukemia
[28] = test system: NCI-H226 lung
[29] = test system: NCI-H460 lung
[30] = test system: NCI-H522 lung
[31] = test system: NCI/ADR-RES ovarian
[32] = test system: OVCAR-3 ovarian
[33] = test system: OVCAR-4 ovarian
[34] = test system: OVCAR-5 ovarian
[35] = test system: OVCAR-8 ovarian
[36] = test system: PC-3 prostate
[37] = test system: RPMI-8226 leukemia
[38] = test system: RXF 393 renal
[39] = test system: SF-268 CNS
[40] = test system: SF-295 CNS
[41] = test system: SF-539 CNS
[42] = test system: SK-MEL-2 melanoma
[43] = test system: SK-MEL-28 melanoma
[44] = test system: SK-MEL-5 melanoma
[45] = test system: SK-OV-3 ovarian
[46] = test system: SN12C renal
[47] = test system: SNB-19 CNS
[48] = test system: SNB-75 CNS
[49] = test system: SR leukemia
[50] = test system: SW-620 colon
[51] = test system: T-47D breast
[52] = test system: TK-10 renal
[53] = test system: U251 CNS
[54] = test system: UACC-257 melanoma
[55] = test system: UACC-62 melanoma
[56] = test system: UO-31 renal
[57] = test system: EKVX NSCLC
[58] = test system: NCI-H23 lung

SMILES: c1ccc([As]=[As]c2ccccc2)cc1 (configuration not stated)
- GI50 [1]: 1280 nM
- TGI [1]: 3190 nM
- GI50 [2]: 668 nM
- TGI [2]: 2340 nM
- GI50 [3]: 1870 nM
- TGI [3]: 3900 nM
- GI50 [4]: 1280 nM
- TGI [4]: 2650 nM
- GI50 [5]: 1230 nM
- TGI [5]: 2870 nM
- GI50 [6]: 1310 nM
- TGI [6]: 3220 nM
- GI50 [7]: 234 nM
- TGI [7]: 1620 nM
- GI50 [8]: 1130 nM
- TGI [8]: 2800 nM
- GI50 [9]: 1660 nM
- TGI [9]: 3320 nM
- GI50 [10]: 1720 nM
- TGI [10]: 3410 nM
- GI50 [11]: 1140 nM
- TGI [11]: 3700 nM
- GI50 [12]: 416 nM
- TGI [12]: 2240 nM
- GI50 [13]: 1190 nM
- TGI [13]: 4190 nM
- GI50 [14]: 1780 nM
- TGI [14]: 3330 nM
- GI50 [15]: 1220 nM
- TGI [15]: 3080 nM
- GI50 [16]: 1550 nM
- TGI [16]: 10500 nM
- GI50 [17]: 1740 nM
- TGI [17]: 3610 nM
- GI50 [18]: 666 nM
- TGI [18]: 2760 nM
- GI50 [19]: 311 nM
- TGI [19]: 2100 nM
- GI50 [20]: 1870 nM
- TGI [20]: 3690 nM
- GI50 [21]: 117 nM
- TGI [21]: 653 nM
- GI50 [22]: 1550 nM
- TGI [22]: 4170 nM
- GI50 [23]: 1290 nM
- TGI [23]: 3230 nM
- GI50 [24]: 251 nM
- TGI [24]: 1070 nM
- GI50 [25]: 880 nM
- TGI [25]: 2210 nM
- GI50 [26]: 1270 nM
- TGI [26]: 2720 nM
- GI50 [27]: 1010 nM
- TGI [27]: 4170 nM
- GI50 [28]: 1460 nM
- TGI [28]: 4150 nM
- GI50 [29]: 2010 nM
- TGI [29]: 4150 nM
- GI50 [30]: 1090 nM
- TGI [30]: 2420 nM
- GI50 [31]: 2160 nM
- TGI [31]: 6320 nM
- GI50 [32]: 676 nM
- TGI [32]: 1850 nM
- GI50 [33]: 1080 nM
- TGI [33]: 2430 nM
- GI50 [34]: 1500 nM
- TGI [34]: 3070 nM
- GI50 [35]: 1440 nM
- TGI [35]: 3690 nM
- GI50 [36]: 1270 nM
- TGI [36]: 2640 nM
- GI50 [37]: 543 nM
- TGI [37]: 2970 nM
- GI50 [38]: 580 nM
- TGI [38]: 2040 nM
- GI50 [39]: 886 nM
- TGI [39]: 2450 nM
- GI50 [40]: 2270 nM
- TGI [40]: 5750 nM
- GI50 [41]: 884 nM
- TGI [41]: 2360 nM
- GI50 [42]: 1620 nM
- TGI [42]: 3470 nM
- GI50 [43]: 922 nM
- TGI [43]: 2320 nM
- GI50 [44]: 1410 nM
- TGI [44]: 3570 nM
- GI50 [45]: 1820 nM
- TGI [45]: 3480 nM
- GI50 [46]: 1210 nM
- TGI [46]: 3070 nM
- GI50 [47]: 1420 nM
- TGI [47]: 2800 nM
- GI50 [48]: 698 nM
- TGI [48]: 2650 nM
- GI50 [49]: 302 nM
- TGI [49]: 1950 nM
- GI50 [50]: 586 nM
- TGI [50]: 2020 nM
- GI50 [51]: 221 nM
- TGI [51]: 876 nM
- GI50 [52]: 1610 nM
- TGI [52]: 3380 nM
- GI50 [53]: 752 nM
- TGI [53]: 2050 nM
- GI50 [54]: 1280 nM
- TGI [54]: 2880 nM
- GI50 [55]: 1120 nM
- TGI [55]: 2410 nM
- GI50 [56]: 973 nM
- TGI [56]: 2390 nM

SMILES: CN1CCN(Cc2ccc3c(NNC(=O)c4ccccc4)nc4cc(F)ccc4n23)CC1
- GI50 [1]: 376 nM
- TGI [1]: 17800 nM
- GI50 [2]: 658 nM
- TGI [2]: 8810 nM
- GI50 [3]: 473 nM
- TGI [3]: 21800 nM
- GI50 [4]: 84.8 nM
- TGI [4]: 11600 nM
- GI50 [5]: 870 nM
- TGI [5]: 57900 nM
- GI50 [6]: 248 nM
- TGI [6]: 14400 nM
- GI50 [7]: 225 nM
- TGI [7]: > 100000 nM
- GI50 [8]: 325 nM
- TGI [8]: 13600 nM
- GI50 [9]: 663 nM
- TGI [9]: > 100000 nM
- GI50 [57]: 170 nM
- TGI [57]: 16000 nM
- GI50 [10]: 526 nM
- TGI [10]: 49600 nM
- GI50 [11]: 316 nM
- TGI [11]: 16000 nM
- GI50 [12]: 56.8 nM
- TGI [12]: > 49400 nM
- GI50 [13]: 335 nM
- TGI [13]: 1910 nM
- GI50 [14]: 270 nM
- TGI [14]: > 100000 nM
- GI50 [15]: 1120 nM
- TGI [15]: 41500 nM
- GI50 [16]: 5730 nM
- TGI [16]: > 100000 nM
- GI50 [17]: 587 nM
- TGI [17]: > 49000 nM
- GI50 [18]: 487 nM
- TGI [18]: 49200 nM
- GI50 [19]: 376 nM
- TGI [19]: 21000 nM
- GI50 [20]: 420 nM
- TGI [20]: > 96400 nM
- GI50 [21]: 277 nM
- TGI [21]: 12600 nM
- GI50 [22]: 252 nM
- TGI [22]: 12900 nM
- GI50 [23]: 584 nM
- TGI [23]: 12700 nM
- GI50 [24]: 359 nM
- TGI [24]: 11800 nM
- GI50 [25]: 500 nM
- TGI [25]: 19200 nM
- GI50 [26]: 599 nM
- TGI [26]: > 66000 nM
- GI50 [27]: 291 nM
- TGI [27]: 20200 nM
- GI50 [28]: 442 nM
- TGI [28]: 9710 nM
- GI50 [58]: 989 nM
- TGI [58]: 29600 nM
- GI50 [29]: 195 nM
- TGI [29]: 11000 nM
- GI50 [30]: 550 nM
- TGI [30]: 12900 nM
- GI50 [31]: 220 nM
- GI50 [32]: 337 nM
- TGI [32]: 40100 nM
- GI50 [33]: 335 nM
- TGI [33]: 37100 nM
- GI50 [34]: 735 nM
- TGI [34]: 70200 nM
- GI50 [35]: 372 nM
- TGI [35]: 46400 nM
- GI50 [36]: 466 nM
- TGI [36]: > 66700 nM
- GI50 [37]: 574 nM
- TGI [37]: 18100 nM
- GI50 [38]: 683 nM
- TGI [38]: 21300 nM
- GI50 [39]: 454 nM
- TGI [39]: > 100000 nM
- GI50 [40]: 270 nM
- TGI [40]: 4890 nM
- GI50 [41]: 491 nM
- TGI [41]: 8220 nM
- GI50 [42]: 2410 nM
- TGI [42]: > 70600 nM
- GI50 [43]: 566 nM
- TGI [43]: 17800 nM
- GI50 [44]: 577 nM
- TGI [44]: 3280 nM
- GI50 [45]: 371 nM
- TGI [45]: > 100000 nM
- GI50 [46]: 551 nM
- TGI [46]: > 100000 nM
- GI50 [47]: 587 nM
- TGI [47]: > 100000 nM
- GI50 [48]: 436 nM
- TGI [48]: > 25800 nM
- GI50 [49]: 282 nM
- TGI [49]: 15700 nM
- GI50 [50]: 519 nM
- TGI [50]: 22400 nM
- GI50 [51]: 593 nM
- TGI [51]: 22800 nM
- GI50 [52]: 252 nM
- TGI [52]: > 92500 nM
- GI50 [53]: 373 nM
- TGI [53]: 19000 nM
- GI50 [54]: 848 nM
- TGI [54]: 12500 nM
- GI50 [55]: 360 nM
- TGI [55]: 3490 nM
- GI50 [56]: 68.1 nM
- TGI [56]: 3790 nM
